From US20100216116A1, “VIRAL LATENCY MODEL” (priority 2007, published 2010)
Where “and” joins values, the source holds several entries; their conditions need not be identical. Identical values can stand only once.

Columns and labels:
Assay type in all cases: cell-based
[1] = tested on: dormant PRV in porcine TG neurons
[2] = tested on: IE180 expression in PRV infected porcine TG neurons
[3] = tested on: HSV-1 strain F in porcine TG neurons
[4] = tested on: pseudorabies virus (PRV) strain Becker in porcine trigeminal ganglion (TG) neurons

## C=C[C@@]1(C)CC(=O)[C@]2(O)[C@@]3(C)[C@@H](O)CCC(C)(C)[C@@H]3[C@H](O)[C@H](OC(C)=O)[C@@]2(C)O1 [forskolin, Forskolin]
[1]
  infected neurons showing expression of late viral proteins: 70%
  reactivation of PRV in neurons that contained dormant virus at 120 hpi: 50%

## IFN-α
[2]
  IE180 expression in discrete nuclear foci after withdrawal: no infected neurons showing IE180 protein expression in discrete nuclear foci could be detected
  infected neurons with IE180 in discrete nuclear compartments: detected in all infected neurons
  infected neurons with localized nuclear IE180 expression: 45%
  infected neurons without any IE180 staining: 55%
[3]
  expression of HSV-1 gD protein after withdrawal: no detectable expression of HSV-1 gD protein was found in any neuron
  productive HSV-1 infection: completely abolished
[4]
  TG neurons with no detectable expression of late viral antigens: ~90%
  infected neurons with spread of new virus to surrounding non-neuronal cells: ~4%
  neurons with late viral antigen expression limited to the golgi without spread: ~6%
  neurons without detectable expression of late viral proteins after withdrawal: 60%
  reduction of productive virus infection: 64% and 98%

B1: IFN-γ (protein, UniProt P01579 24-161, looked up)
Interferon gamma: QDPYVKEAENLKKYFNAGHSDVADNGTLFLGILKNWKEESDRKIMQSQIVSFYFKLFKNFKDDQSIQKSVETIKEDMNVKFFNSNKKKRDDFEKLTNYSVTDLNVQRKAIHELIQVMAELSPAAKTGKRKRSQMLFRG
[4]
  infected neurons without detectable late viral protein expression: Over 90%
  reduction of productive virus infection: 45% and 81%
  virus spread in the inner chamber: extensive virus spread
